Source: patent publication US9000208B2, “Glutamate derivatives or salts thereof” (Ajinomoto Co., Inc., priority 2010, dated 2015)
Structures can show the parent of a compound that is named as a salt. Numbered stars: 1 amine (or outer) side, 2 acyl side, 3 side chain; on linkers, the order of the positions; unused ones are H or OH. Square brackets hold non-standard residues; d marks the D form. Ends that are not written are not given here. γGlu = O=C(O)[C@H](CCC(=O)[*:2])N[*:1]

What was measured:
[1] = Evaluation of kokumi taste, quantitative sensory evaluation test; parameters: species or system human; conditions: for Kokumi Intensity Aftertaste / Kokumi Intensity First-middle taste: score control 0, strong 3, very strong 5, n=4
Procedure: On the compounds in which the calcium receptor activating action was found (sodium salts of Compound Nos. 1, 7 and 21), the intensity of kokumi-imparting activity was examined by a quantitative sensory evaluation test. In 5 ml of distilled water was dissolved 525 mg of Compound No. 1 described in REFERENCE EXAMPLE I and of REFERENCE […] EXAMPLE I. By adding 16.4 ml of 0.1M sodium hydroxide solution to the resulting solution, the solution was adjusted to pH 6.5 to 7 followed by freeze-drying. The resulting Na salt was provided for use. In addition, 500 mg of Compound No. 7 described in REFERENCE EXAMPLE I and REFERENCE […] EXAMPLE 7 was suspended in 5 ml of distilled water. To the suspension were sequentially added 1.61 ml of 1M sodium hydroxide and 0.8 ml of 2M hydrochloric acid at 0° C. The solid precipitated was taken out by filtration and dried under reduced pressure at 40° C. to give 426 mg of Reference Compound No. 7. After the solid substance obtained was suspended in 10 ml of distilled water, 1.2 ml of 1M sodium hydroxide was added to the suspension and freeze-dried. The resulting Na salt was provided for use. Reference Compound No. 21 was used in the form of the Na salt, which was prepared from Compound No. 21 described in REFERENCE EXAMPLE I and REFERENCE […] EXAMPLE 21 by the same procedures as described above.
A quantitative sensory evaluation test was conducted as follows. The intensity of kokumi-imparting activity was examined when 0.000001 to 0.1 g/dl of the compound as a sample (No. 1—Na salt) was mixed with distilled water containing sodium glutamate (0.05 g/dl), inosine monophosphate (0.05 g/dl) and sodium chloride (0.5 g/dl). As a reference, γGlu-Cys-Gly and γGlu-Val-Gly were used, each of which is a known kokumi-imparting component. The sample that became acidic to an additive-free control after dissolving the sample was used by adjusting its pH within ±0.2 with NaOH based on the additive-free control. Sensory scoring was defined as a control: 0, strong: 3 and very strong: 5, and performed in n=4. Meanwhile, a “first-middle taste” is intended to mean the taste combining the first taste and middle taste.

[2] = system: rat large intestine loop; experiment: Effect of CaSR agonist on water absorption in rat large intestine loop method (PGE2-treated); assay type: in vivo; conditions: male SD (IGS) rat, PGE2 i.p., compound in Tyrode solution in the loop, 1 hour
Procedure: Under pentobarbital anesthesia the cecum and large intestine were isolated from the abdomen of a male SD (IGS) rat, and a large intestine loop was prepared by ligating a point 5 cm just below the cecum. Immediately after preparing the loop, PGE2 (4 μg/ml/kg, SIGMA) was intraperitoneally administered. Thirty minutes later, 2 ml of Tyrode solution (136.9 mM NaCl, 2.7 mM KCl, 1.8 mM CaCl2.2H2O, 1.04 mM MgCl2.6H2O, 0.04 mM NaH2PO4.2H2O, 5.55 mM glucose and 11.9 mM NaHCO3) was poured into the loop prepared. An hour later, the weight of the loop, the weight when the liquid was removed from the loop and the loop area were measured to calculate the weight per unit area of the liquid that remains in the loop.
A test compound was dissolved in Tyrode solution (adjusted to pH 6.5 to 7.5), which was provided for tests.
The remaining liquid weight per unit area (g/cm^2) was calculated by the following equation. Remaining liquid weight per unit area (g/cm^2)=(loop weight−loop weight when the liquid was removed from the loop)/loop area
Water absorption was evaluated by calculating the inhibition ratio by the following equation. Inhibition ratio(%)=100−(remaining liquid weight per unit area with a drug−basic average remaining liquid weight per unit area)/(average remaining liquid weight per unit area of vehicle−basic average remaining liquid weight per unit area)×100 […]

N[C@@H](CCC(=O)Nc1cccc(S(=O)(=O)O)c1)C(=O)O [No. 1-Na salt, N^5-(3-sulfophenyl)-L-glutamine]
kokumi-imparting activity ([1]; 0.000001 to 0.1 g/dl in water with sodium glutamate 0.05, inosine monophosphate 0.05, sodium chloride 0.5 g/dl): widely found in the above concentrations | Kokumi Intensity Aftertaste ([1]; 0.00001 g/dl): 1.0 | Kokumi Intensity First-middle taste ([1]; 0.00001 g/dl): 0.7 | Comments on Sensory Evaluation ([1]; 0.0001 g/dl): There was harmony accompanied | Kokumi Intensity Aftertaste ([1]; 0.0001 g/dl): 2.0 | Kokumi Intensity First-middle taste ([1]; 0.0001 g/dl): 1.8 | Kokumi Intensity Aftertaste ([1]; 0.0005 g/dl): 3.0 | Kokumi Intensity First-middle taste ([1]; 0.0005 g/dl): 2.6 | Kokumi Intensity Aftertaste ([1]; 0.001 g/dl): 3.6 | Kokumi Intensity First-middle taste ([1]; 0.001 g/dl): 3.2 | Comments on Sensory Evaluation ([1]; 0.01 g/dl): All tastes were strong. | Kokumi Intensity Aftertaste ([1]; 0.01 g/dl): 5.0 | Kokumi Intensity First-middle taste ([1]; 0.01 g/dl): 5.0

N[C@@H](CCC(=O)Nc1cc(Cl)cc(S(=O)(=O)O)c1O)C(=O)O [No. 7-Na salt, N^5-(5-chloro-2-hydroxy-3-sulfophenyl)-L-glutamine]
Comments on Sensory Evaluation ([1]; 0.00005 g/dl): Thickness mainly in the middle taste. | Kokumi Intensity Aftertaste ([1]; 0.00005 g/dl): 2.5 | Kokumi Intensity First-middle taste ([1]; 0.00005 g/dl): 2.2 | Kokumi Intensity Aftertaste ([1]; 0.0001 g/dl): 3.2 | Kokumi Intensity First-middle taste ([1]; 0.0001 g/dl): 2.5 | Comments on Sensory Evaluation ([1]; 0.0005 g/dl): Rich thickness in the middle taste | Kokumi Intensity Aftertaste ([1]; 0.0005 g/dl): 4.0 | Kokumi Intensity First-middle taste ([1]; 0.0005 g/dl): 3.3

Cc1c(Cl)cc(NC(=O)CC[C@H](N)C(=O)O)cc1S(=O)(=O)O [No. 21-Na salt, N^5-(3-chloro-4-methyl-5-sulfophenyl)-L-glutamine]
Kokumi Intensity Aftertaste ([1]; 0.0002 g/dl): 2.0 | Kokumi Intensity First-middle taste ([1]; 0.0002 g/dl): 1.5 | Kokumi Intensity Aftertaste ([1]; 0.0005 g/dl): 3.1 | Kokumi Intensity First-middle taste ([1]; 0.0005 g/dl): 2.6 | Kokumi Intensity Aftertaste ([1]; 0.001 g/dl): 3.7 | Kokumi Intensity First-middle taste ([1]; 0.001 g/dl): 3.1

N[C@@H](CCC(=O)Nc1cccc(S(=O)(=O)O)c1)C(=O)O [Reference Compound No. 1, N^5-(3-sulfophenyl)-L-glutamine]
Water absorption [2]: promoted dose-dependently

N[C@@H](CCC(=O)Nc1cc(Cl)cc(S(=O)(=O)O)c1O)C(=O)O [Reference Compound No. 7, N^5-(5-chloro-2-hydroxy-3-sulfophenyl)-L-glutamine]
Water absorption [2]: promoted in a dose-dependent manner

[γGlu]-Cys-Gly
Comments on Sensory Evaluation ([1]; 0.01 g/dl): Richness, thickness and continuity | Kokumi Intensity Aftertaste ([1]; 0.01 g/dl): 3.0 | Kokumi Intensity First-middle taste ([1]; 0.01 g/dl): 3.0

[γGlu]-Val-Gly
Comments on Sensory Evaluation ([1]; 0.001 g/dl): Smoothness, richness and growth | Kokumi Intensity Aftertaste ([1]; 0.001 g/dl): 3.0 | Kokumi Intensity First-middle taste ([1]; 0.001 g/dl): 2.5 | Comments on Sensory Evaluation ([1]; 0.005 g/dl): Smoothness, richness and growth | Kokumi Intensity Aftertaste ([1]; 0.005 g/dl): 4.0 | Kokumi Intensity First-middle taste ([1]; 0.005 g/dl): 3.5
